From patent US20230416245A1, “ADENOSINE ANALOGS FOR THE TREATMENT OF DISEASE” (BIOINTERVENE, INC., priority 2020, published 2023)

Target: human adenosine A3 receptor (Homo sapiens (Human), UniProt P0DMS8)
Assay: Intracellular cAMP levels (inhibition of forskolin-stimulated cAMP production)
Type: cell-based
Details: for EC50: CHO cells expressing human adenosine A3 receptors, forskolin 10 μM; for CAMP Efficacy (%): maximal response as percentage of the response produced by 100 nM IB-MECA
How it was run: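 CHO-K1 cells stably expressing human A3 receptor were exposed to compound (0.1 nM–1 μM) for 5 min at 37 °C, then 10 μM forskolin for 10 min. cAMP measured by competitive enzyme immunoassay (OD 450 nm); EC50 from Hill fit of inhibition, maximum relative to 100 nM IB-MECA.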

Chain of human adenosine A3 receptor (P0DMS8 whole entry): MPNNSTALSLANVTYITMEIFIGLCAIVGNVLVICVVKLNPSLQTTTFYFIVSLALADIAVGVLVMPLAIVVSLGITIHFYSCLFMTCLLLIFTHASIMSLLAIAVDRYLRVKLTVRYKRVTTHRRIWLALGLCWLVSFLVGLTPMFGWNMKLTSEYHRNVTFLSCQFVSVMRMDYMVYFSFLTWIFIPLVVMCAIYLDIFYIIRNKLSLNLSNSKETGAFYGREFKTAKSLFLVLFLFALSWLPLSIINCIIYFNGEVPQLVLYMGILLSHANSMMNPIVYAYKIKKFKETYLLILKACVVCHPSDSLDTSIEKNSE

Compound | EC50 | CAMP Efficacy (%)
CCNc1cc(C#CC2CC2)nc2c1ncn2[C@H]1[C@H](O)[C@H](O)[C@@H]2C[C@@H]21 [Compound 46, (1R,2R,3S,4R,5S)-4-(5-(cyclopropylethynyl)-7-(ethylamino)-3H-imidazo[4,5-b]pyridin-3-yl)bicyclo[3.1.0]hexane-2,3-diol] | > 10000 nM | 1%
O[C@@H]1[C@H](O)[C@@H]2C[C@@H]2[C@H]1n1cnc2c(NCC(F)F)nc(Cl)nc21 [Compound 35, (1R,2R,3S,4R,5S)-4-(2-chloro-6-((2,2-difluoroethyl)amino)-9H-purin-9-yl)bicyclo[3.1.0]hexane-2,3-diol] | 1.33 nM | 80.97%
O[C@@H]1[C@H](O)[C@@H]2C[C@@H]2[C@H]1n1cnc2c(NCC(F)F)cc(Cl)nc21 [Compound 40, (1R,2R,3S,4R,5S)-4-(5-chloro-7-((2,2-difluoroethyl)amino)-3H-imidazo[4,5-b]pyridin-3-yl)bicyclo[3.1.0]hexane-2,3-diol] | 8.6 nM | 77.6%
Cc1c(Cl)nc2c(ncn2[C@H]2[C@H](O)[C@H](O)[C@@H]3C[C@@H]32)c1NCC(F)F [Compound 60, (1R,2R,3S,4R,5S)-4-(5-chloro-7-((2,2-difluoroethyl)amino)-6-methyl-3H-imidazo[4,5-b]pyridin-3-yl)bicyclo[3.1.0]hexane-2,3-diol] | > 10000 nM | 1%
